Experimental data from patent US20220395522A1, “Methods of Use of Glucosamine for Increasing Nitrogen Retention” (TSI Bioproducts (Xuzhou) Co., Ltd., priority 2021, published 2022).

Experiments:
[1] = Bristol Stool Chart; format: in vivo, human; details: for Bristol Stool: GLU condition, mean ± SD
Source text: The remainder of the study consisted of two identical patterns of testing with the exception of what supplementation protocol was followed. FIG. 1 provides a flowchart of the experimental design. Prior to each visit, food and physical activity logs were completed encompassing four days prior to the scheduled laboratory visit. The four days consisted of two weekend days and two weekdays. Each participant reported to the laboratory for a baseline measurement of height, weight, heart rate, and blood pressure. During this visit, participants completed the Bristol Stool Chart and Gastrointestinal Symptom Rating Scale (GSRS) to assess bowel habits and potential gastrointestinal symptoms. Participants were given instructions on how to collect a stool sample and were instructed to do so within 24 hours of each planned study visit. At the completion of this study visit, participants were provided with their first assigned supplement (either PLA [placebo] or GLU [glucosamine]) and instructed to begin supplementation 21 days prior to their second visit. Participants were instructed to collect their second stool sample on the day of their final supplementation dose. On the morning of their second study visit, participants reported to the laboratory after following identical pre-study instructions as previous visits (i.e., fasting, abstention from caffeine and exercise). Study participants again completed assessments for height, weight, heart rate, blood pressure, and questionnaires regarding their bowel habits and gastrointestinal symptoms while also providing their second stool sample and turning in completed food and activity logs. A washout period lasting a minimum of 14 days and a maximum of 21 days separated each phase of the crossover as shown in FIG. 1. […] In a double-blind manner, a glucosamine supplement (GLU) or a maltodextrin placebo (PLA) was distributed in identical opaque capsules to all participants. On a daily basis, participants were instructed to ingest three capsules, each containing 1,000 mg of glucosamine hydrochloride (GlucosaGreen®, TSI Group Ltd. MT, USA) or a placebo (maltodextrin) identical in appearance for a total of 21 days. Each visit at the beginning of the supplementation regimen (Visits 1 and 4, respectively; See FIG. 1) occurred on or before the first day of supplementation while the final day of supplementation occurred the day before each participant's follow-up visit for that study period (Visits 2 and 4, respectively). Participants were instructed to ingest the supplement 15-30 minutes before breakfast with eight fluid ounces of cold water. In the case of a missed dose, participants were instructed to consume the missed dose as soon as possible with a meal. […]

[2] = Gastrointestinal Symptom Rating Scale (GSRS); format: in vivo, human; details: for Abdom Pain (combined score of GSRS 1, GSRS4, and GSRS5) / Diarrhea (combined score of GSRS11 and GSRS14) / GSRS1 Pain and discomfort in upper abdomen or stomach / GSRS2 Heartburn / GSRS3 Acid reflux / GSRS4 Hunger pangs / GSRS5 Nausea / GSRS6 Stomach rumbling / GSRS7 Stomach bloating / GSRS8 Burping / GSRS9 Passing gas or flatulence / GSRS11 Diarrhea / GSRS14 Urgent need to have a bowel movement / GSRS15 Sensation of not completely emptying the bowels / Ingestion (combined score of GSRS6, GSRS7, GSRS8, and GSRS9) / Reflux (combined score of GSRS2 and GSRS3) / Constipation (combined score of GSRS10, GSRS13, and GSRS14), 'Constipation Syndrome' / GSRS10 Constipation / GSRS13 Hard stools: GLU condition, mean ± SD; for Constipation (combined score of GSRS10, GSRS13, and GSRS14), 'Constipation Syndrome' / GSRS10 Constipation / GSRS13 Hard stools: hydrochloride
Source text: The remainder of the study consisted of two identical patterns of testing with the exception of what supplementation protocol was followed. FIG. 1 provides a flowchart of the experimental design. Prior to each visit, food and physical activity logs were completed encompassing four days prior to the scheduled laboratory visit. The four days consisted of two weekend days and two weekdays. Each participant reported to the laboratory for a baseline measurement of height, weight, heart rate, and blood pressure. During this visit, participants completed the Bristol Stool Chart and Gastrointestinal Symptom Rating Scale (GSRS) to assess bowel habits and potential gastrointestinal symptoms. Participants were given instructions on how to collect a stool sample and were instructed to do so within 24 hours of each planned study visit. At the completion of this study visit, participants were provided with their first assigned supplement (either PLA [placebo] or GLU [glucosamine]) and instructed to begin supplementation 21 days prior to their second visit. Participants were instructed to collect their second stool sample on the day of their final supplementation dose. On the morning of their second study visit, participants reported to the laboratory after following identical pre-study instructions as previous visits (i.e., fasting, abstention from caffeine and exercise). Study participants again completed assessments for height, weight, heart rate, blood pressure, and questionnaires regarding their bowel habits and gastrointestinal symptoms while also providing their second stool sample and turning in completed food and activity logs. A washout period lasting a minimum of 14 days and a maximum of 21 days separated each phase of the crossover as shown in FIG. 1. […] In a double-blind manner, a glucosamine supplement (GLU) or a maltodextrin placebo (PLA) was distributed in identical opaque capsules to all participants. On a daily basis, participants were instructed to ingest three capsules, each containing 1,000 mg of glucosamine hydrochloride (GlucosaGreen®, TSI Group Ltd. MT, USA) or a placebo (maltodextrin) identical in appearance for a total of 21 days. Each visit at the beginning of the supplementation regimen (Visits 1 and 4, respectively; See FIG. 1) occurred on or before the first day of supplementation while the final day of supplementation occurred the day before each participant's follow-up visit for that study period (Visits 2 and 4, respectively). Participants were instructed to ingest the supplement 15-30 minutes before breakfast with eight fluid ounces of cold water. In the case of a missed dose, participants were instructed to consume the missed dose as soon as possible with a meal. […] The dose of maltodextrin used in the following examples was two to five-fold lower, respectively, than these investigations. Participants completed electronic (Qualtrics, Inc.) versions of the Bristol Stool Chart and the Gastrointestinal Symptoms Rating Scale (GSRS) at four time points throughout the entire study protocol. The first two questionnaires were completed before and after the first supplementation period while the final two questionnaires were collected before and after the second supplementation period. The Bristol Stool Chart requires participants to classify their bowel movements into one of seven different types of stool. Type 1 was classified as being “Separate hard lumps, like nuts (hard to pass)”, Type 2 being “Sausage-shaped, lumpy, uncomfortable to pass”, Type 3 being “Like a sausage, with cracks on its surface”, Type 4 being “Like a sausage or snake, smooth and soft”, Type 5 being “Soft blobs with clear-cut edges, passes easily”, Type 6 being “Fluffy pieces with ragged edges, a mushy stool”, and Type 7 being “Watery, no solid pieces, entirely liquid”. The Gastrointestinal Symptoms Rating Scale (GSRS), a 15-item clinical rating scale was completed a total of four times to assess symptoms related to gastrointestinal distress during the past week. […]

[3] = Post 21 days, 3 x 1,000 mg/day oral

With `Cl.N[C@H]1C(O)O[C@H](CO)[C@@H](O)[C@@H]1O` (some centres unmarked) [GLU, glucosamine hydrochloride] the “Bristol Stool” value [1, 3] was 3.6 ± 0.8, the “Bristol Stool” value ([1]; Pre (baseline)) was 3.3 ± 0.8 and the “Bristol Stool, %” value ([1]; PLA vs. GLU, between-group) was −19.9%. For the same molecule, the “Changes in Bristol Stool chart ratings within group” value ([1]; Post vs Pre, p=0.10) was “no significant changes”, the “Abdom Pain (combined score of GSRS 1, GSRS4, and GSRS5)” value [2, 3] was 4.18 ± 1.66 and the “Diarrhea (combined score of GSRS11 and GSRS14)” value [2, 3] was 3.27 ± 1.56. For the same molecule, the “GSRS1 Pain and discomfort in upper abdomen or stomach” value [2, 3] was 1.5 ± 0.7, the “GSRS2 Heartburn” value [2, 3] was 1.2 ± 0.4 and the “GSRS3 Acid reflux” value [2, 3] was 1.2 ± 0.4. For the same molecule, the “GSRS4 Hunger pangs” value [2, 3] was 1.18 ± 0.4, the “GSRS5 Nausea” value [2, 3] was 1.55 ± 1.21 and the “GSRS6 Stomach rumbling” value [2, 3] was 2.2 ± 1.3. The “GSRS7 Stomach bloating” value [2, 3] was 2.1 ± 1.22, the “GSRS8 Burping” value [2, 3] was 1.2 ± 0.4 and the “GSRS9 Passing gas or flatulence” value [2, 3] was 2.46 ± 1.21. For the same molecule, the “GSRS11 Diarrhea” value [2, 3] was 1.73 ± 1.56, the “GSRS14 Urgent need to have a bowel movement” value [2, 3] was 1.55 ± 0.93 and the “GSRS15 Sensation of not completely emptying the bowels” value [2, 3] was 1.09 ± 0.3. The “Ingestion (combined score of GSRS6, GSRS7, GSRS8, and GSRS9)” value [2, 3] was 7.91 ± 2.98, the “Reflux (combined score of GSRS2 and GSRS3)” value [2, 3] was 2.36 ± 0.67 and the “Constipation (combined score of GSRS10, GSRS13, and GSRS14), 'Constipation Syndrome'” value [2, 3] was 3.27±0.9. The “GSRS10 Constipation” value [2, 3] was 1.09±0.3, the “GSRS13 Hard stools” value [2, 3] was 1.09±0.3 and the “Abdom Pain (combined score of GSRS 1, GSRS4, and GSRS5)” value ([2]; Pre (baseline)) was 4.27 ± 1.68. For the same molecule, the “Diarrhea (combined score of GSRS11 and GSRS14)” value ([2]; Pre (baseline)) was 2.27 ± 0.9, the “GSRS1 Pain and discomfort in upper abdomen or stomach” value ([2]; Pre (baseline)) was 1.2 ± 0.4 and the “GSRS2 Heartburn” value ([2]; Pre (baseline)) was 1.1 ± 0.3. For the same molecule, the “GSRS3 Acid reflux” value ([2]; Pre (baseline)) was 1.0 ± 0.0, the “GSRS4 Hunger pangs” value ([2]; Pre (baseline)) was 1.82 ± 0.98 and the “GSRS5 Nausea” value ([2]; Pre (baseline)) was 1.27 ± 0.9. For the same molecule, the “GSRS6 Stomach rumbling” value ([2]; Pre (baseline)) was 1.5 ± 0.69, the “GSRS7 Stomach bloating” value ([2]; Pre (baseline)) was 1.9 ± 1.22 and the “GSRS8 Burping” value ([2]; Pre (baseline)) was 1.2 ± 0.4. For the same molecule, the “GSRS9 Passing gas or flatulence” value ([2]; Pre (baseline)) was 1.82 ± 0.75, the “GSRS11 Diarrhea” value ([2]; Pre (baseline)) was 1.0 ± 0.0 and the “GSRS14 Urgent need to have a bowel movement” value ([2]; Pre (baseline)) was 1.27 ± 0.9. For the same molecule, the “GSRS15 Sensation of not completely emptying the bowels” value ([2]; Pre (baseline)) was 1.73 ± 1.1, the “Ingestion (combined score of GSRS6, GSRS7, GSRS8, and GSRS9)” value ([2]; Pre (baseline)) was 6.45 ± 2.5 and the “Reflux (combined score of GSRS2 and GSRS3)” value ([2]; Pre (baseline)) was 2.09 ± 0.3. For the same molecule, the “Constipation (combined score of GSRS10, GSRS13, and GSRS14), 'Constipation Syndrome'” value ([2]; Pre (baseline)) was 5.09±3.45, the “GSRS10 Constipation” value ([2]; Pre (baseline)) was 1.82±1.4 and the “GSRS13 Hard stools” value ([2]; Pre (baseline)) was 1.55±1.04. The “Abdom Pain combined score, %” value ([2]; PLA vs. GLU, between-group) was 4.2%, the “Constipation combined score, %” value ([2]; PLA vs. GLU, between-group) was −33.3% and the “Diarrhea combined score, %” value ([2]; PLA vs. GLU, between-group) was 30.6%. The “GSRS1, %” value ([2]; PLA vs. GLU, between-group) was 31.3%, the “GSRS2, %” value ([2]; PLA vs. GLU, between-group) was −0.9% and the “GSRS3, %” value ([2]; PLA vs. GLU, between-group) was 20.0%. The “GSRS4, %” value ([2]; PLA vs. GLU, between-group) was −11.3%, the “GSRS5, %” value ([2]; PLA vs. GLU, between-group) was 35.4% and the “GSRS6, %” value ([2]; PLA vs. GLU, between-group) was 37.6%. The “GSRS7, %” value ([2]; PLA vs. GLU, between-group) was −30.7%, the “GSRS8, %” value ([2]; PLA vs. GLU, between-group) was −10% and the “GSRS9, %” value ([2]; PLA vs. GLU, between-group) was 8.8%. For the same molecule, the “GSRS10, %” value ([2]; PLA vs. GLU, between-group) was −64.9%, the “GSRS11, %” value ([2]; PLA vs. GLU, between-group) was 55.0% and the “GSRS13, %” value ([2]; PLA vs. GLU, between-group) was −15.5%. For the same molecule, the “GSRS14, %” value ([2]; PLA vs. GLU, between-group) was 13.0%, the “GSRS15, %” value ([2]; PLA vs. GLU, between-group) was −23.8% and the “Ingestion combined score, %” value ([2]; PLA vs. GLU, between-group) was −0.4%. For the same molecule, the “Reflux combined score, %” value ([2]; PLA vs. GLU, between-group) was 8.4% and the “Stomach bloating ratings (GSRS7), change from baseline” value ([2]; Post vs Pre, p=0.32) was “no changes were observed”.
